In patent US6441133B1, “Thyrotropin-releasing hormone receptor 2(TRHR-2)” (AstraZeneca Canada Inc., priority 1996, dated 2002):
Read-outs that look alike come from different tables or passages of the source. Where a SMILES comes first, the peptide text is derived from it. Where no end group is shown, it is not given here. [ ]: non-standard residue; d: D form. pGlu = O=C1CC[C@@H](C(=O)O)N1

What was measured:
TRHR-2 [1] = target: T1, TRHR-2 (Rattus norvegicus, UniProt A6IZR3); test: 3H-TRH radioligand binding on whole HEK293s cells stably expressing TRHR-2
T1 construct: expressed in transfected cells; host or cells: HEK293s
T1 sequence (A6IZR3 1-352): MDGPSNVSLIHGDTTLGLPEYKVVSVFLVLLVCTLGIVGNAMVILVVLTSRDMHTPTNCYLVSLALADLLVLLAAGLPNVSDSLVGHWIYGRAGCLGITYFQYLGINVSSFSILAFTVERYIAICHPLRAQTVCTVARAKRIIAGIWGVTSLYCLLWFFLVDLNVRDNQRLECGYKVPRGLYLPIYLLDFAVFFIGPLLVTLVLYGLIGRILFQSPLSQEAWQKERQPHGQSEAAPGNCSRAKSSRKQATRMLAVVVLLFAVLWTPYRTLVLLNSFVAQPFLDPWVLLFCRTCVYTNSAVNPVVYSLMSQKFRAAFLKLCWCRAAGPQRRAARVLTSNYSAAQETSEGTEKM
Method: (§1) The TRH binding assay was performed on whole cells. Transfected cells were washed twice with HBSS (Gibco BRL, cat# 14065) supplemented with 0.05% bovine serum albumin, detached by gentle pipetting and aliquoted in eppendorf tubes for binding assays. One twentieth of the cells collected from a confluent 75 cm^2 flask was used per assay point. The binding reaction was performed in a total volume of […] of binding buffer (HBSS+0.05% bovine serum albumin) containing the transfected cells and 10 nM of^3H-thyrotropin releasing hormone (Peninsula Laboratories Inc, cat # 7501) with or without unlabelled competitors. Non-specific binding was estimated in the presence of 1 mM of unlabelled TRH. Reactions were carried out for 60 min at room temperature and reactions were stopped by filtration through Unifilters-96 GF/B filters (Canberra Packard cat # 6005177) using the 96-well Filtermat 196 filtration system from Canberra Packard. The filters were washed 3 times with 1 ml of washing buffer (50 mM Tris(HCl), 3 mM MgCl2, pH 7.0). They were then dried at 55° C. for one hour and 50 μl of mScint-20 (Canberra Packard) was added per well. Filters were counted with the Topcount microplate counter from Canberra Packard.
HEK293s cells in a 10 cm petri dish were transfected with […] pCDNA3-TRHR2. After 14 days of selection in culture medium containing 600 μg/ml G418, resistant colonies were pooled. Then, single clones were purified by 2 rounds of limited dilution in 96 well plates. Clones of HEK293s cells expressing different levels of TRHR-2 receptor were selected using a 3H-TRH binding assay.

[2] = target: T2, TRH receptor (TRHR-1) of GH4C1 cells (Rattus norvegicus, UniProt Q01717); test: 3H-TRH radioligand binding on GH4C1 cells
T2 construct: endogenous in cells; host or cells: GH4C1
T2 sequence (Q01717 1-412): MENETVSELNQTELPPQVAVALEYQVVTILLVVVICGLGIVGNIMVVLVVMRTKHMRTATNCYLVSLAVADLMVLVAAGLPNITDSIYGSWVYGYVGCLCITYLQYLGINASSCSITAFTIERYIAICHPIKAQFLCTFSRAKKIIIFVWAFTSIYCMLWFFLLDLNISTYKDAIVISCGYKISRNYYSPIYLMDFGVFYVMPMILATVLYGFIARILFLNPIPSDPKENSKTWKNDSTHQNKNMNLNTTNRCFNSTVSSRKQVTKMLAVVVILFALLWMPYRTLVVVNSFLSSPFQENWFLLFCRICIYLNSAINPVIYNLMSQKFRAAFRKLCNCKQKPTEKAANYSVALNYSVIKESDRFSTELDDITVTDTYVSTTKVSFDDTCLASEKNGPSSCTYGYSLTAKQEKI

[3] = I.C.V. injection, on a molar basis (Boschi et al. 1983); cited from earlier work
TRHR-2 [4] = target: T1, TRHR-2; test: Intracellular calcium mobilization (Fura 2) in HEK293/TRHR-2 cells; type: cell-based
Method: Intracellular calcium concentration changes where determined by fluorescence measurement of the intracellular, calcium-sensitive indicator Fura 2. Briefly, HEK293s cells were grown on glass cover slips in culture medium at 37° C., 5% CO2 and diluted 10 fold every 3 days. The cells were loaded at room temperature for 30 min using […] of is Fura 2/AM in simplified Grace's solution (SGS buffer) physiological buffer (NBS: 135 mM NaCl, 5 mM KCl, 1.8 mM CaCl2, 1.2 mM MgSO4, 10 mM HEPES, pH 7.4). Fura 2/AM is a membrane permeant, calcium-insensitive ester of Fura 2. After three washes in Fura-2 /AM-free buffer, the cells were incubated for 15 to 30 min in SGNBS at room temperature to insure full hydrolysis of the Fura 2 ester. The calcium-sensitive, hydrolyzed form of Fura 2 remains trapped intracellularly. Experiments were conducted at room temperature on single cells or small groups of 3 to 7 cells in a coverslip holder fitted to the stage of an IMT-2 inverted microscope equipped with a 40×-epifluorescence objective (UVFL40, 0.85, Olympus Optical Co, Tokyo) and coupled to a PTI ratio fluorescence system (Photon Technology International, London, Ontario, Canada). Sample illumination was provided by a 75 W xenon light source attached to a filter-based light chopper unit which provided 340 and 380 nm excitation wavelength alternating at a frequency of 5 Hz. The emitted light was passed through an adjustable rectangular aperture followed by a 505 nm interference filter (10-nm bandwidth), and its intensity was recorded by a photon counter detector. Dye leakage, as determined by loss of fluorescence over a period of 30 min, was undetectable at both excitation wavelengths.
The ratio of the fluorescence intensity at the two excitation wavelengths can be converted into an estimate of ionized intracellular calcium concentration by use of the formula: [Ca^2+]i=Kd×(Fmin/Fmax)×(R-Rmin)/(Rmax-R), where R, Rmin, and Rmax are the fluorescence ratios recorded during the experiment (R) and during calibration tests on unlysed cells using […] ionomycin in SGNBS (Rmax), followed by 10 mM EGTA addition at pH 8.2 (Rmin). Fmin and Fmax are the corresponding fluorescence intensities for the 380 nm excitation and Kd is the Fura-2 dissociation constant at room temperature (135 nM).
Small volumes (10-50 μl) of drugs (hormones, agonists, neurotransmitters, TRH, bradykinin) from prediluted stock solutions prepared in the appropriate buffer solutions were directly added to the experimental chamber.

[5] = target: Thyrotropin-releasing hormone receptor 2 (TRHR-2), rat, expressed in HEK293s cells from pCDNA3-TRHR2 (rat); test: competition with 3H-TRH tracer on whole cells, 293S/TRH-R clonal cell line
[6] = target: TRH receptor of GH4C1 cells (TRHR-1) (UniProt Q01717); test: radioligand binding on whole GH4C1 cells
[7] = target: Thyrotropin-releasing hormone receptor 2 (TRHR-2), rat, expressed in HEK293s cells from pCDNA3-TRHR2 (rat); test: saturation radioligand binding on whole HEK 293 cells expressing TRHR-2
[8] = target: Thyrotropin-releasing hormone receptor 2 (TRHR-2), rat, expressed in HEK293s cells from pCDNA3-TRHR2 (rat); test: radioligand binding on whole cells, 293S/TRH-R clonal cell line
[9] = target: T3, Thyrotropin-releasing hormone receptor 2 (TRHR-2), rat, expressed in HEK293s cells from pCDNA3-TRHR2 (rat); test: competition with 3H-TRH tracer on whole cells, 293S/TRH-R clonal cell line
T3 construct: 352 amino acid open reading frame cloned from a rat brain stem-spinal cord cDNA library; also called TRH receptor 2; 293S/TRH-R clonal cell line
T3 chain: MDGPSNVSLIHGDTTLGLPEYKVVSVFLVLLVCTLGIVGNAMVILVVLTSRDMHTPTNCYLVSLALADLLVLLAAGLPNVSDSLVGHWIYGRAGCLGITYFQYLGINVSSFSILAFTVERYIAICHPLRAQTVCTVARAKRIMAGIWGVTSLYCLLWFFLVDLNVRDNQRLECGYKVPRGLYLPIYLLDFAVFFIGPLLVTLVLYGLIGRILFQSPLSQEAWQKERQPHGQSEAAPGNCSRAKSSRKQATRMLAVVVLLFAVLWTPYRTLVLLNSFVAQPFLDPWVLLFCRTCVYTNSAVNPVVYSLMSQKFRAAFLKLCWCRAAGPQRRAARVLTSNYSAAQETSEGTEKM
Method: as §1, with “cm²” for “cm^2”, “of ³H-thyrotropin” for “of^3H-thyrotropin”, “MgCl_2,” for “MgCl2,”, “µl” for “μl”
(§2) A binding reaction was performed using HEK 293 cells expressing TRHR-2. […] Various TRH-related peptides were used in competition experiments.

[10] = target: T3, Thyrotropin-releasing hormone receptor …; test: 3H-TRH competition on cells expressing TRHR-2 (assay not restated in the sentence)
Method: as §1, with “cm²” for “cm^2”, “of ³H-thyrotropin” for “of^3H-thyrotropin”, “MgCl_2,” for “MgCl2,”, “µl” for “μl”
as §2

[11] = HEK 293 cells expressing TRHR-2, read-out: IC50 in competition with 3H-TRH as tracer
[12] = GH4C1 cells, three independent experiments
[13] = 293S/TRH-R clonal cell line, three independent experiments, read-out: IC50
[14] = nanomolar concentrations of TRH

## Cn1cnc(C[C@H](NC(=O)[C@@H]2CCC(=O)N2)C(=O)N2CCC[C@H]2C(N)=O)c1 [pGlu-3-methyl-His-Pro-amide]
TRHR-2 [1]; [11]
  IC50: 2.2 nM
[2]; [12]
  IC50: 0.43 ± 0.27 nM

## O=C(O)CNC(=O)[C@@H]1CCCN1C(=O)[C@H](Cc1c[nH]cn1)NC(=O)[C@@H]1CCC(=O)N1 [pGlu-His-Pro-Gly] ([pGlu]HPG-OH; C-terminus assumed)
TRHR-2 [1]; [13]
  IC50: 641 ± 75.2 nM
TRHR-2 [1]; [11]
  IC50: 640 nM
TRHR-2 [1]; read-out: Ki value to the TRHR-2 receptor
  Ki: 640 nM
[2]
  binding to GH4C1 cells: does not show any binding
[2]; [12]
  IC50: > 10000 nM

## NC(=O)[C@@H]1CCCN1C(=O)[C@H](CCC(=O)O)NC(=O)[C@@H]1CCC(=O)N1 [pGlu-Glu-Pro-amide] ([pGlu]-Glu-Pro-NH2)
TRHR-2 [1]; [13]
  IC50: > 10000 nM
TRHR-2 [1]; [11]
  IC50: > 10000 nM
[2]; [12]
  IC50: > 10000 nM

## NC(=O)[C@@H]1CCCN1C(=O)[C@H](Cc1cnc[nH]1)NC(=O)[C@@H]1CCC(=O)N1 [TRH, pyroglutamic acid-histidine-proline-amide]
[3]
  analgesia relative to morphine: twice as great
TRHR-2 [4]
  need of extracellular calcium for the transient rise in [Ca++]i: did not require the presence of extracellular calcium
TRHR-2 [4]; [14]
  change of intracellular calcium concentration: marked transient increase in the intracellular calcium concentration
  time to peak of [Ca++]i: about 1 second
  time until baseline [Ca++]i was attained: about 1 minute
TRHR-2 [1]; [13]
  IC50: 8.39 ± 2.31 nM
TRHR-2 [1]; [11]
  IC50: 8.3 nM
[2]; [12]
  IC50: 5.33 ± 2.81 nM

## pGlu-3-methyl-His-Pro-amide (peptide)
[5]
  IC50: 2.2 nM

## Thyrotropin-releasing hormone (TRH), pGlu-His-Pro-amide, unlabelled (peptide)
[5]
  IC50: 8.39 nM

## 3H-thyrotropin releasing hormone (tritium-labelled TRH, Peninsula Laboratories) (peptide)
[6]
  BMAX: 577 fmol/mg
  Kd: 5.32 nM
[7]
  Bmax (fmol/mg proteins): 430
  Kd: 2.5 nM
[8]
  BMAX: 535 fmol/mg
  Kd: 6.17 nM

## ^3H-thyrotropin releasing hormone [^3H-TRH]
TRHR-2 [1]; 293S/TRH-R clonal cell line, three independent experiments, read-out: Kd
  Kd: 6.17 ± 1.51 nM
TRHR-2 [1]; HEK 293 cells expressing TRHR-2, saturation binding, read-out: estimated Kd for 3H-TRH
  Kd: 2.5 nM
[2]; [12]
  Kd: 5.32 ± 1.63 nM

B1: pGlu-His-Pro-Gly (peptide)
peptide: [pGlu]HPG
notes: TRH-related peptide with a modified C-terminus
[9]
  IC50: 641 nM
[10]
  Ki: 640 nM
